# Columns and labels:
# [1] = tested on: human PAECs; test: Leukocyte and monocyte adhesion to an endothelial monolayer; type: cell-based
# Procedure: Leukocyte and monocyte adhesion assays: Immune activation of the endothelium was assessed by measuring the adhesion of immune cells to an endothelial monolayer. Human PAECs were cultured until a complete monolayer was formed. Immune cells were stained with either CellTrace™ Blue or CFSE (ThermoFisher; Blue, C34568; CFSE, C34554) per the manufacturer's protocol. Between […] stained immune cells were added to each well of a six-well plate and allowed to incubate for 24 hours. Wells were then rinsed two times with PBS and subsequently fixed with 4% PFA for 15 minutes at room temperature. After fixation, the cells were rinsed once more with PBS. Fluorescent images were acquired at 4× magnification for each well. Immune cell number per image was quantified using Fiji. For the leukocyte adhesion assay, HuT 78 cutaneous T lymphocytes were used (ATCC). For the monocyte adhesion assay, THP-1 peripheral blood monocytes were used (ATCC).
# [2] = tested on: VCAM1; test: VCAM1 expression by RT-qPCR and immunoblot in PAECs; type: cell-based, human
# Procedure: (§1) RNA extraction and quantitative polymerase chain reaction: Cells were lysed in QIAzol Lysis Reagent (Qiagen; 79306), and RNA was extracted using the Rnaeasy Kit (Qiagen; 74004). Complementary DNA was synthesized using the High-Capacity cDNA Reverse Transcription Kit (ThermoFisher; 4368813). Quantitative real-time PCR (RT-qPCR) was performed on an Applied Biosystems QuantStudio 6 Flex Real-Time PCR instrument.
# (§2) Target gene expression was normalized to a housekeeping gene (i.e., ACTB) and fold change was calculated using the […] method. TaqMan™ Universal PCR Master Mix (ThermoFisher; 4305719) was used with TaqMan primers (Table 1). PowerUp™ SYBR^TM Green Master Mix (ThermoFisher; A25742) was used with custom designed primers (Table 2).
# Protein extraction and immunoblotting: Cells were rinsed two times with PBS before collection in RIPA buffer containing protease and phosphatase inhibitors. Protein concentration was determined using the Pierce™ BCA Protein Assay Kit (ThermoFisher; 23225). Protein lysates were separated using 4-15% Mini-PROTEAN® TGX™ Precast Protein Gels (Bio-Rad Laboratories; 4561086) and subsequently transferred onto a PVDF membrane. Membranes were blocked with 5% BSA in Tris-buffered saline with 0.1% Tween 20 (TBST) for one hour at room temperature. Primary antibodies were subsequently added and incubated at 4° C. overnight (Table 3). The next day blots were washed three times for 10 minutes each with TBST. Blots were then incubated with the appropriate secondary antibody coupled to HRP for one hour at room temperature. After another round of TBST washing, blots were visualized using Pierce ECL reagents and images were captured using the BioRad ChemiDoc XRS+.
# Application of oxysterols and bile acids: Oxysterols and bile acids were applied to human PAECs in 0.1% FBS, cell-specific media. 25-hydroxycholesterol and 7HOCA were dissolved in 100% ethanol and applied to cells at a concentration of 25 μM or 50 μM for 24 hours, respectively.
# [3] = tested on: chronically hypoxic mouse model; details: 10 mg/kg orotracheal, four weeks hypoxia
# [4] = target: ATP6V1B2-NCOA7 interactions (Homo sapiens, UniProt Q8NI08); test: Proximity ligation assay of ATP6V1B2-NCOA7 interactions in human PAECs; type: cell-based; details: 958ami versus DMSO
# Procedure: Proximity ligation assay: Direct interaction of NCOA7 with the V-ATPase subunit ATP6V1B2 was assessed using the Duolink® Proximity Ligation Assay (Millipore Sigma; DU092102). Human PAECs were plated in a Nunc™ Lab-Tek™ II Chamber Slide™ System (20,000 per well; ThermoFisher; 154453) and then fixed with 4% paraformaldehyde for 15 minutes. After permeabilization and blocking per the manufacturer's protocol, wells were incubated with either mouse anti-NCOA7 antibody (Santa Cruz Biotechnology; sc-393427), rabbit anti-ATP6V1B2 antibody (abcam; ab73404), both antibodies, or neither antibodies overnight at 4° C. (Table 3). Cells were then incubated with the PLUS and MINUS probes for one hour, ligated for 30 minutes, and amplified for 100 minutes at 37° C. Slides were then mounted with ProLong™ Gold Antifade Mountant with DAPI (ThermoFisher; P36935). Images were acquired on a Nikon A1 Confocal Microscope at the Center for Biologic Imaging at the University of Pittsburgh.
# [5] = tested on: CH25H; test: CH25H expression via RT-qPCR in PAECs under IL-1β; type: cell-based, human
# Procedure: as §1, §2
# [6] = tested on: monocrotaline PAH rat model; details: 7.5 mg/kg i.p. for 10 days
# [7] = tested on: BA.2 spike pseudotyped virus; type: cell-based
# [8] = tested on: Klebsiella pneumoniae; test: Mice infected with Klebsiella pneumoniae, acute lung injury; type: in vivo, mouse; details: 5 mg/kg IP daily for 3 days
# Procedure: Mice were infected with Klebsiella pneumoniae. […] (FIG. 23 (A, B)) Representative images were prepared of lung tissue sections stained with H&E after 48 hours of intratracheal infection with K. pneumoniae in mice treated with DMSO compared to 958 (5 mg/kg IP dosing daily for 3 days).
# [9] = target: T1, NCOA7 (Homo sapiens, UniProt Q8NI08); test: Initial experimental validation of top scoring virtual screening compounds; details: preliminary data
# T1 sequence (Q8NI08 1-942): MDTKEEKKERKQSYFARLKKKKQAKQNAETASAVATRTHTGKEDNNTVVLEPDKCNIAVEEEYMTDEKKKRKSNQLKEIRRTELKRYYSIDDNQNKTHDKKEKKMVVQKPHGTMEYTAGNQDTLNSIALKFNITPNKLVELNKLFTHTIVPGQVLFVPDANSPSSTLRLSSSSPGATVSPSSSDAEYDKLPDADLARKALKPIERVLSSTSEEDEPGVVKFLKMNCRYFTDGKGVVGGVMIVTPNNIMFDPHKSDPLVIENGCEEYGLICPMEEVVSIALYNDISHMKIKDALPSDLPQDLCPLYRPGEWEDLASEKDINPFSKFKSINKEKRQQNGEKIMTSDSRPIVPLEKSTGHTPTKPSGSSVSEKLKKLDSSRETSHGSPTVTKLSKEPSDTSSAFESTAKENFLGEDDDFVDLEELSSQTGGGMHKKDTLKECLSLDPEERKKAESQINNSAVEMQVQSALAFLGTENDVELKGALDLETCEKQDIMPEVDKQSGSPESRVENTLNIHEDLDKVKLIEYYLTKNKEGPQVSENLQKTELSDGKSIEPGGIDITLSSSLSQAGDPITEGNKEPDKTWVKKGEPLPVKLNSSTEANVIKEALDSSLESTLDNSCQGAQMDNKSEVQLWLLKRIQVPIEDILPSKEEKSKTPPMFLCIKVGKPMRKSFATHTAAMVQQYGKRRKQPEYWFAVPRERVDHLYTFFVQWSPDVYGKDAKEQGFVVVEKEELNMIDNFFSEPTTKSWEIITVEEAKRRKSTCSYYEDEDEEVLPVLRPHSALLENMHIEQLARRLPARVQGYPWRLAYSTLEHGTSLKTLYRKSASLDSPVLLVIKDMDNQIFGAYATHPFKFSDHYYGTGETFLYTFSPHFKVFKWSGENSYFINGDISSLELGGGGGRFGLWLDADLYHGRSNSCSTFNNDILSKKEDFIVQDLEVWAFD
# Source text: Pharmacophore modeling: Using Pharmmaker, we identified the residues involved in high affinity interactions with each molecular probe type. The residue-probe interactions were subsequently rank-ordered based on their frequency of occurrence at the druggable hot spots in multiple runs. […] The pharmacophore model contained a hydrogen bond donor and a hydrophobic feature at the isopropylamine site and hydrophobic and aromatic rings at the two benzene sites. The pharmacophore model was then screened against the ZINC and MolPort libraries using Pharmit. The MolPort library contains 67,033,884 conformers corresponding to 4,848,718 compounds, and the ZINC library contains 122,276,899 conformers of 13,127,550 compounds. Among top-scoring compounds, MolPort-004-267-958 was selected for further refinement after initial experimental validation.
# [10] = tested on: coronavirus; details: mouse, in vivo
# [11] = tested on: NCOA7; test: IL-1β-mediated upregulation of NCOA7 in ECs; type: cell-based; details: inhibition of STAT1/2 signaling
# [12] = 25 μM for 24 hours versus ethanol
# Sequence of ATP6V1B2-NCOA7 interactions (P21281 whole entry partner, one chain of several): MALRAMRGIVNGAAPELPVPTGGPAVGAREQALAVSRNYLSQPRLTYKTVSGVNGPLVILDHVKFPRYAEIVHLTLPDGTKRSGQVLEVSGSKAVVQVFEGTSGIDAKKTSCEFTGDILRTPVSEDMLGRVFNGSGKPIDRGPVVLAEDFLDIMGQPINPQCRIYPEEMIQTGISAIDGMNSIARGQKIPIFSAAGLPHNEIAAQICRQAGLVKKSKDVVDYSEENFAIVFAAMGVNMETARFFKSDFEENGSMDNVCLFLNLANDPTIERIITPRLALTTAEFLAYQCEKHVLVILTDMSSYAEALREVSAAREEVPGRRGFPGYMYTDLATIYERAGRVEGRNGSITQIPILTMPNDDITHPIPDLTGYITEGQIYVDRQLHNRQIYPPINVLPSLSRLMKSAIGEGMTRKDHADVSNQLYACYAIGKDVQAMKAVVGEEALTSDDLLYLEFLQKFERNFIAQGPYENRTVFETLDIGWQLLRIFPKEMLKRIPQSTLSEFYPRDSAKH
structure (smiles),measurement,setting,value
"CC(CCC[C@@H](C)[C@H]1CC[C@H]2[C@@H]3[C@H](O)CC4=CC(=O)CC[C@]4(C)[C@H]3CC[C@]12C)C(=O)O (stereo partly drawn) [7HOCA, 7α-hydroxy-3-oxo-4-cholestenoic acid]",adhesion of leukocytes and monocytes to a PAEC monolayer,[1]; 7HOCA-treated PAECs versus ethanol control,promoting adhesion
same,VCAM1 expression,[2]; 7HOCA 50 μM for 24 hours versus ethanol control,significantly upregulated
same,CD11b+ monocyte infiltration into the vascular bed,[3],enhanced
same,RVSP,[3],increased
same,VCAM1 expression in pulmonary vessels,[3],enhanced
same,pulmonary arteriolar remodeling,[3],increased
"C[C@H](CCCC(C)(C)O)[C@H]1CC[C@H]2[C@@H]3CC=C4C[C@@H](O)CC[C@]4(C)[C@H]3CC[C@]12C [25HC, 25-hydroxycholesterol]",immune cell adhesion to a PAEC monolayer,[1]; [12],enhanced immune cell adhesion
same,VCAM1 expression,[2]; [12],similarly upregulated VCAM1
O=C(NCc1cc(=O)oc2cc(O)c(O)cc12)c1nn(-c2ccccc2)c(=O)c2ccccc12 [958ami],EC immunoactivation as noted by immune cell adhesion to a monolayer,[1]; 958ami-treated PAECs versus DMSO,decreased EC immunoactivation
same,number of amplifications per cell (ATP6V1B2-NCOA7 interactions),[4],significantly induced
same,CH25H induction,[5],prevented induction of CH25H
same,CD11b+ monocyte infiltration at the pulmonary vessel,[6],attenuation
same,CH25H expression in pulmonary vessels,[6],decreased CH25H expression
same,RVSP,[6],significant reduction
same,VCAM1 expression at the endothelium,[6],attenuation
same,pulmonary vessel muscularization,[6],decreased muscularization
same,right ventricular hypertrophy (Fulton's Index),[6],significant reduction
same,hepatic or renal toxicity,[6]; versus vehicle,neither had appreciable hepatic or renal toxicity
same,EC immunoactivation as noted by VCAM1 expression,[2]; 958ami 20 μM for 24 hours versus DMSO,decreased EC immunoactivation
same,BA.2 spike pseudotyped virus infection,[7],decrease
O=C(OCc1cc(=O)oc2cc(O)c(O)cc12)c1nn(-c2ccccc2)c(=O)c2ccccc12 [compound 958],"inflammation by ELISA on lung homogenate of IL-1β, TNF-α, and IL-6",[8],decreased inflammation
same,acute lung injury,[8]; H&E after 48 hours of intratracheal infection,improvement of acute lung injury
same,effect on NCOA7 relative to the other predicted compounds,[9],activator of NCOA7
same,mortality,[10],significantly improved mortality
same,"proinflammatory markers (IL-1α, IL-1β, IFN-γ, VCAM1, and ICAM1) in lung tissue",[10],attenuation
same,viral load in lung tissue,[10],decreased viral load
same,BA.2 spike pseudotyped virus infection,[7],decrease
N#CCNC(=O)c1ccc(-c2ccnc(Nc3ccc(N4CCOCC4)cc3)n2)cc1 [momelotinib],IL-1β-mediated upregulation of NCOA7,[11],abrogated

# Source: patent publication US20250295657A1, “Methods and Compositions for Treatment of Inflammation and Inflammatory Conditions” (University of Pittsburgh - Of the Commonwealth System of …, priority 2022, published 2025)
